Literature values in patent US20250195455A1, “COMBINATION NASAL AND ORAL THERAPY FOR WEIGHT LOSS” (priority 2022, published 2025).
Where two headings read alike, the source gives them in different places.

Conditions: for Average weight loss/one year: vs. 3% placebo; for evidence of weight loss: no drug trials for weight loss

| Compound | patients that have 5% weight loss/12 weeks | patients that have 10% weight loss/12 weeks | Average weight loss/one year | Average weight loss vs. placebo (vs. placebo) | other results |
| --- | --- | --- | --- | --- | --- |
| C[C@@H](Cc1ccccc1)N(C)Cc1ccccc1 [Benzphetamine] | 80% | 50% | 10% | – | – |
| CCN(CC)C(C)C(=O)c1ccccc1 (centres unmarked) [Diethylpropion] | 80% | 50% | 10% | – | – |
| CNCCC(Oc1ccc(C(F)(F)F)cc1)c1ccccc1 (centres unmarked) [Fluoxetine] | – | – | – | – | evidence of weight loss: No evidence of weight loss |
| C[C@H]1CNCCc2ccc(Cl)cc21 [Lorcaserin] | – | – | – | – | weight loss/year vs. placebo (per year, vs. placebo): 3-5% |
| CCCCCCCCCCC[C@@H](C[C@@H]1OC(=O)[C@H]1CCCCCC)OC(=O)[C@H](CC(C)C)NC=O [Orlistat] | – | – | – | – | weight loss (vs. placebo)/6 months (6 months, vs. placebo): 5%; net loss (decreased fat absorption): approximately 500 kcal/day; net loss (equivalent of the kcal/day net loss): 1 lb./week |
| C[C@H]1[C@H](c2ccccc2)OCCN1C [Phendimetrazine] | 80% | 50% | 10% | – | – |
| CC(C)(N)Cc1ccccc1 [Phentermine] | 80% | 50% | 10% | – | – |
| CN[C@H]1CC[C@@H](c2ccc(Cl)c(Cl)c2)c2ccccc21 [Sertraline] | – | – | – | – | evidence of weight loss: No evidence of weight loss |
| CC1(C)O[C@@H]2[C@@H](CO[C@@]3(COS(N)(=O)=O)OC(C)(C)O[C@@H]23)O1 [Topiramate] | – | – | – | – | efficacy (vs. placebo) (vs. placebo): Minimal, if any efficacy |
| Albeglutide | – | – | – | 2.9 kg./year | – |
| Dulaglutide | – | – | – | 2.9 kg./year | – |
| Lixisenatide | – | – | – | 2.9 kg./year | – |
| Semaglutide (HAEGTFTSDVSSYLEGQAAKEFIAWLVKGRG; Glucagon-like peptide 1(7-37) semaglutide; Aib8, R34K, C18 diacid side chain; UniProt P01275 98-128, looked up) [GLP-1 agonist] | – | – | – | 2.9 kg./year | – |
